Results as given in US20240327427A1, “NEW COMPOUNDS FOR THE TREATMENT OF ALZHEIMER'S DISEASE” (Icahn School of Medicine at Mount Sinai, priority 2020, published 2024).

Experiments:
[1] = tested on: ATP6V1A; experiment: ATP6V1A mRNA expression in drug-treated NPCs (LINCS profiles); type: cell-based, human; conditions: drug-treated vs DMSO-treated, LINCS data
From the text: Compounds were screened for drugs that can rescue the in vitro and in vivo phenotypes arising from ATP6V1A deficits. Using their drug repositioning tool, Ensemble of Multiple Drug Repositioning Approaches (EMUDRA) (Zhou et al., 2018b), the inventors matched the disease signature from the BM36-PHG region and the signatures of 3,629 drugs tested in the NPCs in the Library of Integrated Network-based Cellular Signatures (LINCS) project (FIG. 6A). The inventors further prioritized candidate drugs by their potential to increase the mRNA expression of ATP6V1A in the NPCs.
To identify existing drugs that can restore the molecular expression change in the LOAD brains, the inventors performed a drug repositioning analysis using EMUDRA, which provides a novel computational algorithm to match disease signatures and drug-induced signatures. The inventors downloaded drug-treated gene expression profiles (level 3 data of quantile-normalized and log 2 transformed expression levels from human iPSC-derived neural progenitor cells (NPCs) from the Library of Integrated Network-Based Cellular Signatures (LINCS) program. After removing probes sets mapping to multiple genes or without known gene annotation, the remaining data were adjusted for batch effects using linear regression. The mean expression level of multiple probe sets that match to the same gene was used as the expression level for that gene. For each drug, the applied drug signature was the transcriptome-wide expression difference between drug-treated and DMSO-treated gene expression profiles. The inventors matched each of the drug signatures to the LOAD signature using EMUDRA to find drugs that could reverse the LOAD signature. […] In total, 3,629 drug signatures were analyzed and ranked. The inventors further prioritized the top-ranked drugs that can increase ATP6V1A mRNA expression in the NPCs.

[2] = tested on: ATP6V1A; experiment: ATP6V1A mRNA (qRT-PCR) and protein (western blot) levels in hiPSC-derived NGN2 neurons (iNs); type: cell-based, human
Procedure: To verify this discovery, the inventors measured the transcriptional and translational levels of ATP6V1A in D21 iNs treated with the 3 HDAC inhibitors at a series of concentrations between 1 and 30 μM.
CRISPR inhibition (CRISPRi) was used to repress endogenous ATP6V1A in hiPSC-derived NGN2 neurons. […] Next, the inventors investigated whether LQ081-166 rescued the phenotypes of ATP6V1A deficit and reduced neuronal activity.
Quantitative reverse transcription PCR (qRT-PCR) was performed as previously described. Specifically, cell cultures were harvested with Trizol and total RNA extraction was carried out following the manufacturer's instructions. Quantitative transcript analysis was performed using a QuantStudio 7 Flex Real-Time PCR System with the Power SYBR Green RNA-to-Ct Real-Time qPCR Kit (all Thermo Fisher Scientific). Total RNA template (25 ng per reaction) was added to the PCR mix, including primers listed below. qPCR conditions were as follows; 48° C. for 30 min, 95° C. for 10 min followed by 40 cycles (95° C. for 15 s, 60° C. for 60 s). All qPCR data is collected from at least 3 independent biological replicates of one experiment. Data analyses were performed using GraphPad PRISM 6 software.
Cells were rinsed with ice-cold phosphate-buffered saline (PBS), pelleted, and lyzed in RIPA Lysis and Extraction Buffer (Thermo Fisher Scientific, #89900) containing Halt™ Protease and Phosphatase Inhibitor Cocktail (Thermo Fisher Scientific, #78440). Alternatively, MSBB BM36 brain samples were homogenized with similar methods. Samples were sonicated for 1 minute then centrifuged at 13,000× rpm for 10 min. The supernatant was collected, and total protein concentration was determined using Quick Start™ Bradford Protein Assay (Bio-Rad, 5000201) following the manufacturer's instructions.
Images were captured and quantified using the Odyssey® Imaging Systems (LI-COR. Inc.).
A stock solution of LQ081-166 (molecular weight: 452.63) at 3 mM is prepared in dimethyl sulfoxide (DMSO). Once prepared, aliquot the stock solution into 100 μL amounts and store at −80° C. Avoid repeated freeze-thaw cycles. The stock is diluted 1000× into neuronal medium to obtain 3 μM for assays. After 24-hour treatment, RNA was extracted from cells for quantitative PCR. In the MEA assay, LQ081-166 was added on neuronal differentiation day 14. Replace with medium containing drug or vehicle every 2-3 days until the final recording day.

[3] = tested on: Aβ42; experiment: Aβ42 levels in fly brains (western blot); type: in vivo, Drosophila; conditions: Aβ42 flies, fed
Procedure: Aβ42 flies were treated with 0, 10, or 50 μM of NCH-51 during aging to examine its effects on neurodegeneration. […] Western blotting was performed as described previously. To detect human Aβ42, ten fly heads for each genotype were homogenized in Tris-Glycine SDS sample buffer, and the same amount of the lysate was loaded to 18% Tris-Glycine gels and transferred to nitrocellulose membrane. The membranes were boiled in PBS for 3 min, blocked with 5% nonfat dry milk, blotted with the anti-AD 6E10 antibody (Signet, Covance), incubated with appropriate secondary antibody and developed using ECL Western Blotting Detection Reagents (GE Healthcare Life Sciences). The membranes were also probed with anti-tubulin (Sigma-Aldrich) as the loading control in each experiment. To detect human tau, ten fly heads for each genotype were homogenized in Tris-Glycine SDS sample buffer, and the same amount of the lysate was loaded to each lane of 10% Tris-Glycine gels and transferred to nitrocellulose membrane. The membranes were blocked with 5% nonfat dry milk, blotted with the antibodies described below, incubated with the appropriate secondary antibody and developed using ECL Prime Western Blotting Detection Reagent (GE Healthcare Life Sciences). […] Imaging was performed with ImageQuant LAS 4000 (GE Healthcare Life Sciences), and the signal intensity was quantified using Image J (NIH).

## CC(C)C(=O)SCCCCCCC(=O)Nc1nc(-c2ccccc2)cs1 [NCH-51]
[1]
  ATP6V1A (log2FC): 0.71 log2FC
[2]; 3 μM, 24-hr, particularly in ATP6V1A KD iNs, P<0.05
  ATP6V1A mRNA level: dramatically elevates
[2]; D21 iNs, concentrations between 1 and 30 μM
  transcriptional and translational levels of ATP6V1A: effectively increased ATP6V1A levels
[2]; iNs, 3 μM
  ATP6V1A protein yield: significantly increase the protein yield
[2]; iNs, 3 μM, P<0.05
  ATP6V1A protein level: similarly increased
[3]
  Aβ42 levels in fly brains: did not affect
